Assay [1] is described as follows: NIH-3T3 fibroblast cytotoxicity, dose response, cytotoxicity control, cell-based, fluorescence, Alamar Blue, secondary assay (AID 2327).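 Also: NIH-3T3 mouse fibroblasts cultured with fluconazole at 8 µg/mL.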 It counts as functional.
The next assay has as its target T1, Aminopeptidase N (Plasmodium falciparum FcB1/Columbia, UniProt O96935).
T1 sequence (O96935 whole entry): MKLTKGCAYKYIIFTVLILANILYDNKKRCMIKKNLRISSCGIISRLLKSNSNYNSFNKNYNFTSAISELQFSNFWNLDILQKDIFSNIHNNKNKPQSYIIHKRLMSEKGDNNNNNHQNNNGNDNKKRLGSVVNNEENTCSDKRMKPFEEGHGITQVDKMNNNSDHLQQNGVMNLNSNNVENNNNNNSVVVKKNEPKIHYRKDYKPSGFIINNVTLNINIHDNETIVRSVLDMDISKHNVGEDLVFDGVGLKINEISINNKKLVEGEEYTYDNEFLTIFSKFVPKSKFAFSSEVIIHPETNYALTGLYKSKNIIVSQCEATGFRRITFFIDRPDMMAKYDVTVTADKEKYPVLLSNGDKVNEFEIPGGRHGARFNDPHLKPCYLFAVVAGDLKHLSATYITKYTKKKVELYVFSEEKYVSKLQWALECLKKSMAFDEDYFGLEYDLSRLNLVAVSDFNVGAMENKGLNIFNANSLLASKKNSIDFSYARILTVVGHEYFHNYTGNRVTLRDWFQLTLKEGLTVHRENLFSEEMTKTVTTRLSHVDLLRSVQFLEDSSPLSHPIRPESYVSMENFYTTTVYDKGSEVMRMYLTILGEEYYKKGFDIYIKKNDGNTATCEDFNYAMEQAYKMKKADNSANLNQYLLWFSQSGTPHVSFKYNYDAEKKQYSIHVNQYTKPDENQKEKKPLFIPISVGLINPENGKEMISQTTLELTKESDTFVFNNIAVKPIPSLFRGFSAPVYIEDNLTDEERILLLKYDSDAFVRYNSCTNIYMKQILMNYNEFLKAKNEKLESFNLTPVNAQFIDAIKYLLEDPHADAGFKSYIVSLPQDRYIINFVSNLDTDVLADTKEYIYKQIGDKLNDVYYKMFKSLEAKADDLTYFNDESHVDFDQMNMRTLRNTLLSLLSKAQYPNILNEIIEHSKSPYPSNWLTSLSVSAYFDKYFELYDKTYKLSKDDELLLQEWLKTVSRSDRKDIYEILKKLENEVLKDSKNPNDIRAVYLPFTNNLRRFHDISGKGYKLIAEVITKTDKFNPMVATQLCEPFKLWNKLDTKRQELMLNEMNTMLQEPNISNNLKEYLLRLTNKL
The assay is described as follows: malaria alanyl aminopeptidase activity blockers – biochemical, fluorogenic H-Leu-NHMec substrate, 1536-well (AID 1445). Details: species or system Plasmodium falciparum 3D7, 3D7.

The next assay addresses T2, Bcl-2-like protein 10 (Homo sapiens, UniProt Q9HD36).
T2 sequence (Q9HD36 whole entry): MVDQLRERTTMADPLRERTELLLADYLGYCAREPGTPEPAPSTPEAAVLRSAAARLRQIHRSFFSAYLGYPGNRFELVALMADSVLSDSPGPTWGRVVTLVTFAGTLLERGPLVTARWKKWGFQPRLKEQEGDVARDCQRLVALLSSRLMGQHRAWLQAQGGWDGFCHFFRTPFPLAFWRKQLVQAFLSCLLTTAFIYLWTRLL
Description: Bcl-B/TR3 peptide binding disruption – biochemical, fluorescence polarization, FITC-TR3 peptide, selectivity assay for Bfl-1 inhibitor project, primary screen (AID 748).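 Also: fluorescence polarization from a fluorescein-labelled TR3 peptide binding purified Bcl-B.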

Assay [2] can be described thus: fluconazole-exposed Candida albicans growth modulators – fluorescence, retest, confirmation (AID 2467). Format: functional, cell-based.
Assay [3] addresses Intestinal-type alkaline phosphatase (Homo sapiens, UniProt P09923). The assay is described as follows: activation of human intestinal alkaline phosphatase – biochemical, dose response (AID 488873). Format: functional.
The target of assay [4] is Alkaline phosphatase, placental type (Homo sapiens, UniProt P05187). The assay is described as follows: human placental alkaline phosphatase inhibition – biochemical, luminescence, confirmation (AID 1512). It counts as functional.
Chain of Alkaline phosphatase, placental type (P05187 whole entry): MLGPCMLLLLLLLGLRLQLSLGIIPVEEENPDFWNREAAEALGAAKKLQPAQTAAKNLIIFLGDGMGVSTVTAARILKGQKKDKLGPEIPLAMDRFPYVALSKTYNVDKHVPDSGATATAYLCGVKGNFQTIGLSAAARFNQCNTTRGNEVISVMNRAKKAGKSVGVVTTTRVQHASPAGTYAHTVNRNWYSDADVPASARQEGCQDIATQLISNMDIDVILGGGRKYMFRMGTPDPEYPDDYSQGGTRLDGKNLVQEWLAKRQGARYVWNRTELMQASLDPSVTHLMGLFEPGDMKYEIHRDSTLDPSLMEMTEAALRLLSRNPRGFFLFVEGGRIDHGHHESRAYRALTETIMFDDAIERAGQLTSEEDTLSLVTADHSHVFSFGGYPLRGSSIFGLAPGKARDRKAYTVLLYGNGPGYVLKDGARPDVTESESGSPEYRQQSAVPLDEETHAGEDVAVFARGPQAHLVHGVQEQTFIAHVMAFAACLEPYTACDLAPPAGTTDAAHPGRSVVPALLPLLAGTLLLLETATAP
For assay [5], the target named is T3, Alkaline phosphatase, tissue-nonspecific isozyme (Homo sapiens, UniProt P05186).
T3 sequence (P05186 whole entry): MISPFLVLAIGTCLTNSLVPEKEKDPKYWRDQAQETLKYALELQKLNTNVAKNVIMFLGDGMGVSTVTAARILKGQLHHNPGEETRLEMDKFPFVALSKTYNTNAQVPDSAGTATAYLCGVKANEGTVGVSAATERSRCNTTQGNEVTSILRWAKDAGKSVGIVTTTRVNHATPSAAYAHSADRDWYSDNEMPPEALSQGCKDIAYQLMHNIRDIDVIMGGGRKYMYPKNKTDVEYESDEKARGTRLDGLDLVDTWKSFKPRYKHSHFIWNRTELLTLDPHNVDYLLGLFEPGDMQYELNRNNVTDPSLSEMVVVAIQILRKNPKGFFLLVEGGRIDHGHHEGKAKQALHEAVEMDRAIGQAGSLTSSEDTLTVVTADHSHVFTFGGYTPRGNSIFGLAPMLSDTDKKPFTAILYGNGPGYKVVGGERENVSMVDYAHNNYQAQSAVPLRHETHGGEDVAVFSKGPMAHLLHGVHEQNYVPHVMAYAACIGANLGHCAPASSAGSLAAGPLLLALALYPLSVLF
Description: potency against alkaline phosphatase TNAP – biochemical, luminescent, dose response, SAR follow-up (AID 1056).

Assay [6] has as its target Intestinal-type alkaline phosphatase (Mus musculus, UniProt P24822). Description: mouse intestinal alkaline phosphatase activators, dose response, biochemical, luminescence, uHTS hits (AID 488783). Format: functional.
For assay [7], the target named is T3, Alkaline phosphatase, tissue-nonspecific isozyme. Description: activation of tissue-nonspecific alkaline phosphatase – biochemical, TNAP isozyme, mouse IAP uHTS hits, selectivity assay for mouse IAP activator project, dose response (AID 488880). It counts as functional.
For assay [8], the target named is T4, Rac GTPase-activating protein 1 (Homo sapiens, UniProt Q9H0H5).
T4 sequence (Q9H0H5 whole entry): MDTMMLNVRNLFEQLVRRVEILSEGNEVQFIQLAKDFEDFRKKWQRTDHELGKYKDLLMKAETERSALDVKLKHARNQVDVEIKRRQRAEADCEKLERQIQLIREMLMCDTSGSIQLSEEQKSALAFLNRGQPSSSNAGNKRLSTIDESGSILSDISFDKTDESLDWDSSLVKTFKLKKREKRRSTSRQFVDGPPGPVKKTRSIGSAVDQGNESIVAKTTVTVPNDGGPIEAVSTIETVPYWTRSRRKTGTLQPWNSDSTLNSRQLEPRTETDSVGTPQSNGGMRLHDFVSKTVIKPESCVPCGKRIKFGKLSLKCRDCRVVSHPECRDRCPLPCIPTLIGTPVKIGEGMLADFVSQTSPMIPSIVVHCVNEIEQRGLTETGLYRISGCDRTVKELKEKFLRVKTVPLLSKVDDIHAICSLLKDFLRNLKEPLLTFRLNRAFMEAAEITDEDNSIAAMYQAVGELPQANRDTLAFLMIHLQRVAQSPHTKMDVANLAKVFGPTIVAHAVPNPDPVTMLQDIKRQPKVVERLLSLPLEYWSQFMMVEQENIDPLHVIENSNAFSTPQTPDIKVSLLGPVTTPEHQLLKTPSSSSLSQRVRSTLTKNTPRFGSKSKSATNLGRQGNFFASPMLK
The assay is described as follows: blockers of MgcRacGAP-driven Rac1 GTP hydrolysis – biochemical, ADP Hunter fluorescence, primary and confirmatory, confirmation (AID 624330). Format: functional.

Assay [9] deals with T5, Kappa-type opioid receptor (Homo sapiens, UniProt P41145). Description: kappa opioid receptor activation by imaging – image-based, set 3, SAR follow-up (AID 488833). Format: functional.
T5 sequence (P41145 whole entry): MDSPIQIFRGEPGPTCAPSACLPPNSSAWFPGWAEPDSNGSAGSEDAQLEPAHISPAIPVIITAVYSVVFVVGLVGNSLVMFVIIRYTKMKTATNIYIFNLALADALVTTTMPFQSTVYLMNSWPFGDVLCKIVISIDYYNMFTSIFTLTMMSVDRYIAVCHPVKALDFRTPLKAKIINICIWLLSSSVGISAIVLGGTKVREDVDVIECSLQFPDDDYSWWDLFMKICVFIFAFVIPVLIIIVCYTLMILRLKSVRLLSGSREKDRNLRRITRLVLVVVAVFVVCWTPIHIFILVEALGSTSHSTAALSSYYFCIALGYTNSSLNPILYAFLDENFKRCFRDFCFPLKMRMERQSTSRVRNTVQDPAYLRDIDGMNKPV
The next assay has as its target Mu-type opioid receptor (Homo sapiens, UniProt P35372). Description: SAR Analysis of Agonists of the MOR Receptor using an Image-Based Assay - Set 3. [Related pubchem assays (depositor defined):AID1777, AID1785, AID1786, AID1966, AID2133, AID2136, AID2284, AID2285, AID2352]. Format: functional.
Assay [10] concerns the target Delta-type opioid receptor (Homo sapiens, UniProt P41143). The assay is described as follows: SAR Analysis of Agonists of the DOR Receptor using an Image-Based Assay - Set 3. [Related pubchem assays (depositor defined):AID1777, AID1786]. Format: functional.
Assay [11] addresses T5, Kappa-type opioid receptor. Description: SAR analysis of small molecule agonists of the kappa opioid receptor via a luminescent beta-arrestin assay - Set 3. [Related pubchem assays (depositor defined):AID1777, AID1785, AID1786, AID1966, AID2133, AID2136, AID2284, AID2500]. Format: functional.

As usually defined, the EC50 is the concentration needed to bring the measured effect to its halfway point. Broadly, the IC50 is the point on the concentration scale where inhibition reaches its midpoint.

Active and inactive are the calls of the source.

Chain of Delta-type opioid receptor (P41143 whole entry): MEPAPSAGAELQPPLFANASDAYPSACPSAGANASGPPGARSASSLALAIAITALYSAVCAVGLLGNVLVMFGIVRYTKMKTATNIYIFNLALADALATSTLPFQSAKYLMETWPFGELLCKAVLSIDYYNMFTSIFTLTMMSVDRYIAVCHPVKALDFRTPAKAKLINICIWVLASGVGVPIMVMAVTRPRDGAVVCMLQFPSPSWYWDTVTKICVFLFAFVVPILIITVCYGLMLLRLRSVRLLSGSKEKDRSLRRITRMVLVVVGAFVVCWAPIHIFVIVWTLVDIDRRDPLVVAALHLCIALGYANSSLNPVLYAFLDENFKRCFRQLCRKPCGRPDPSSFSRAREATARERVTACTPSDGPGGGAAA
Chain of Intestinal-type alkaline phosphatase (Mus musculus, UniProt P24822) (P24822 whole entry): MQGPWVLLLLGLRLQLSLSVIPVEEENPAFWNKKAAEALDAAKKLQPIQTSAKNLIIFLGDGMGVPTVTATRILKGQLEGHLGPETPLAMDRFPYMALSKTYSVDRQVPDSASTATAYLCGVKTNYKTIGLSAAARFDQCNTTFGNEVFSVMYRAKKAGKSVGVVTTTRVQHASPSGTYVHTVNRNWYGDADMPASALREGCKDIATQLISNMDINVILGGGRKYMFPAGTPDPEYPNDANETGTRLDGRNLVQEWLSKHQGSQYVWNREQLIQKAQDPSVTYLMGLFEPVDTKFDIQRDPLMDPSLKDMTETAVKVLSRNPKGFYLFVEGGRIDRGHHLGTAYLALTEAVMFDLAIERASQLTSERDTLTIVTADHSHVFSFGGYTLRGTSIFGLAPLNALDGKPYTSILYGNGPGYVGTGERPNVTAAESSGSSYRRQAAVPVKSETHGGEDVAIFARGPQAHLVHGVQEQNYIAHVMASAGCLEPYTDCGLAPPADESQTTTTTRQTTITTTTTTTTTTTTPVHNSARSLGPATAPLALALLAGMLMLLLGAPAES
Chain of Mu-type opioid receptor (P35372 whole entry): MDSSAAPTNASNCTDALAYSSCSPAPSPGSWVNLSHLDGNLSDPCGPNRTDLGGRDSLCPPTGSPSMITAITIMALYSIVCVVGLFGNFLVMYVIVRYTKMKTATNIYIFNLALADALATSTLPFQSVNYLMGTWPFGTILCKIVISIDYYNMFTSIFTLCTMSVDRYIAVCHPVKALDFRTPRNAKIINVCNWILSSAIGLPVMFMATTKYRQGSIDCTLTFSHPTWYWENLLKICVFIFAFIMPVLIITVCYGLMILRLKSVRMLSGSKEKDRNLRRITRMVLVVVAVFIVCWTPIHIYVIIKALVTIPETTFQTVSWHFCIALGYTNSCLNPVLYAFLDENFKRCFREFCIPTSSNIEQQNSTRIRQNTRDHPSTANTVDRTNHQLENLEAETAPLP
Chain of Intestinal-type alkaline phosphatase (Homo sapiens, UniProt P09923) (P09923 whole entry): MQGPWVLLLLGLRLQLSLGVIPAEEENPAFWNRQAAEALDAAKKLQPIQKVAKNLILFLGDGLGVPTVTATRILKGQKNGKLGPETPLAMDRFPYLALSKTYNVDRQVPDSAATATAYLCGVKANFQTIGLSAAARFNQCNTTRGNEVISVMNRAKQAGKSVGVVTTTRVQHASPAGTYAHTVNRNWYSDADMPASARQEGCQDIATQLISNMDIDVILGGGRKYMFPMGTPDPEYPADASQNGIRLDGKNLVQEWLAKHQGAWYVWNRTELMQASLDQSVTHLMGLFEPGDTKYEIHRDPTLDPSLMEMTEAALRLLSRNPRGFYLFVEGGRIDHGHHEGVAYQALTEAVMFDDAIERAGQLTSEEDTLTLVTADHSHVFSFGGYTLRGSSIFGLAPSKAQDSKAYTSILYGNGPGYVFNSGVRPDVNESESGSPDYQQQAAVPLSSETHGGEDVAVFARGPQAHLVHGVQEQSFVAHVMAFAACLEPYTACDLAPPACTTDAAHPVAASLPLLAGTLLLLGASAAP

Take `CCn1c(CSc2nc3ccccc3s2)nnc1SCC(=O)c1ccc(O)c(O)c1`: the EC50 in [1] was > 160 µM (inactive); in assay [2] it was > 38 µM (not active); in assay [3], > 100 µM (inactive); in assay [6], 1.84 µM (active); in assay [7], 64.2 µM (active). The IC50 was 68.8 µM (active) at Aminopeptidase N; > 100 µM (inactive) on Bcl-2-like protein 10; 3.87 µM (inactive) in [4]; > 100 µM (inactive) in [5]; 179 µM (active) in [8].

As for `O=[N+]([O-])c1ccc(CSc2nnc(-c3ccccn3)n2Cc2cccs2)cc1`, the EC50 in [9] is 0.956 µM (active); at Mu-type opioid receptor it was > 32 µM (inactive); in assay [10], > 64 µM (inactive); in [11], 1.24 µM (active).

For the origin of these results see ChEMBL document CHEMBL1201862, “PubChem BioAssay data set” (2004).
